What was measured:
Format in all cases: cell-based
KRAS(G12D) = target: T1, KRAS(G12D) (Homo sapiens, UniProt P01116, G12D); experiment: HiBit degradation assay in GP5d-HiBit-KRAS(G12D) cells (18 h; DC50, Dmax)
T1 construct: introduced immediately downstream of the initiating Methionine codon of the endogenous KRAS locus; host or cells: GP5d-HiBit-KRAS(G12D), a CRISPR knock-in at the endogenous locus
Outline: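 GP5d cells carry an endogenous N-terminal HiBit tag on KRAS(G12D), knocked in by CRISPR. They were seeded overnight in DMEM/10% FCS, exposed to compound for 18 h at 37° C, then lysed for HiBit luminescence, normalised to DMSO. DC50 comes from a four-parameter logistic fit; Dmax is maximal degradation as % of control.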

KRAS4B G12D = target: T2, KRAS4B G12D (Homo sapiens, UniProt P01116, G12D); experiment: HiBit KRAS4B mutant spectrum degradation assay, KRAS4B G12D in GP5d cells (18 h); conditions: KRAS mutation G12D
T2 construct: HiBit; expressed in transfected cells; host or cells: GP5d cells (ECACC 95090715), stably transduced with lentivirus, CMV promoter
T2 sequence (P01116 1-188 isoform P01116-2 G12D): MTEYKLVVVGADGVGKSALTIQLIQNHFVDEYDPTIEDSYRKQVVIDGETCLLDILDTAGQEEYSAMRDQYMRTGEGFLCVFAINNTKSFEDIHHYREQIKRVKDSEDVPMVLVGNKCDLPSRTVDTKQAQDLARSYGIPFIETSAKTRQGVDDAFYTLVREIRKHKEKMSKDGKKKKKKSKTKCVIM
Text: (§1) The therapeutically relevant mutant KRAS constructs (WT, G12C, G12D, G12V, G13D) were obtained by site directed mutagenesis using a KRAS4B WT cDNA construct as a template. GP5d cells (ECACC Cat. No. 95090715) were transduced with lentiviral vectors expressing mutant KRAS4B cDNA under control of a CMV promoter. Stably transduced cells were selected using a neomycin selectable marker encoded on the construct.
(§2) To assess PROTAC-mediated degradation of various KRAS mutants, GP5d cells stably transduced with KRAS4B constructs as described above were seeded at 25000 cells per well in 100 μL Dulbecco's Modified Eagle medium (Sigma cat. no. D6429) supplemented with 10% fetal calf serum into white bottom opaque 96 well plates (Perkin Elmer cat no. 5680). Plates were incubated at 37° C., 5% CO2 in a humidified incubator over night to allow the cells to adhere. […] Plates were further incubated at 37° C. for 18 hours. Following incubation, 100 μL per well Promega Nano-Glo HiBit lytic detection reagent mix (Promega Nano-Glo HiBit Lytic Detection System #N3050), prepared according to the manufacturer's instructions in the kit, were added. To allow for adequate cell lysis, plates were incubated on an orbital shaker for 15 min and further incubated 30 min at room temperature. Upon completion of cell lysis, luminescence was measured using an Envision plate reader using the Ultrasensitive Luminescence Protocol for 96 well plates. Luminescence levels were normalized by the values obtained with DMSO-treated samples and plotted as percent of DMSO control. DC50 values were computed using a four parametric logistic model and are reported in nM in Table 65 for representative example (Ex.) compounds of the invention. Dmax values represent the maximal extent of degradation observed and is stated as percent of control (% Ctrl.) treatments in Table 66 for representative example (Ex.) compounds of the invention.

KRAS4B WT = target: T3, KRAS4B WT (Homo sapiens, UniProt P01116); experiment: HiBit KRAS4B mutant spectrum degradation assay, KRAS4B WT in GP5d cells (18 h); conditions: KRAS mutation G12WT
T3 construct: HiBit; expressed in transfected cells; host or cells: GP5d cells (ECACC 95090715), stably transduced with lentivirus, CMV promoter
T3 sequence (P01116 1-188 isoform P01116-2): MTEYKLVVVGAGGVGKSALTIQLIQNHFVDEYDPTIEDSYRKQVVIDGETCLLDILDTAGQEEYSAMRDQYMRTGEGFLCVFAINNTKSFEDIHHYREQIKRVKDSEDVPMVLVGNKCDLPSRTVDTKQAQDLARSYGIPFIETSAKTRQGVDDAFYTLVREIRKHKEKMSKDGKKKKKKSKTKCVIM
Text: as §1, §2

KRAS4B G12V = target: T4, KRAS4B G12V (Homo sapiens, UniProt P01116, G12V); experiment: HiBit KRAS4B mutant spectrum degradation assay, KRAS4B G12V in GP5d cells (18 h); conditions: KRAS mutation G12V
T4 construct: HiBit; expressed in transfected cells; host or cells: GP5d cells (ECACC 95090715), stably transduced with lentivirus, CMV promoter
T4 sequence (P01116 1-188 isoform P01116-2 G12V): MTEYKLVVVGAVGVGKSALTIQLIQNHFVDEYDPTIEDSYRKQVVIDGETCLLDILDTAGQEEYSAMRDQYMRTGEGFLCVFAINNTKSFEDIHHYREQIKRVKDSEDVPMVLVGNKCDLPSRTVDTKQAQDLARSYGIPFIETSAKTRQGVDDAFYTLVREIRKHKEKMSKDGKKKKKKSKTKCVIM
Text: as §1, §2

GP2D cells = experiment: GP2D proliferation assay (120 h) (colorectal cancer, G12D)
Procedure: GP2D Proliferation Assay (120 h) (Colorectal Cancer, G12D)
GP2D cells (ATCC No. CRL-5807) are dispensed into white 384-well plates, flat and white bottom (Perkin Elmer, 6007680) at a density of 500 cells per well in 40 μl DMEM (Sigma, D6429)+1× GlutaMAX (Gibco, 35050038)+10% FCS (fetal calf serum). […] Compounds (10 mM stock in DMSO) are added at logarithmic dose series using the HP Digital Dispenser D300 (Tecan), including DMSO controls and normalizing for added DMSO. For the TO time point measurement, untreated cells are analyzed at the time of compound addition. Plates are incubated for 120 h, and cell viability is measured using CellTiter-Glo luminescent cell viability reagent (Promega product code G7570). Viability (stated as percent of control) is defined as relative luminescence units RLU of each well divided by the RLU of cells in DMSO controls. IC50 values are determined from viability measurements by non-linear regression using a four parameter model.

A375 cells = experiment: A375 CTG proliferation assay (120 h) (melanoma, wt, B-Raf mutant, negative control); conditions: Homo sapiens, A-375, negative control cell line
Procedure: A375 CTG Proliferation Assay (120 h) (Melanoma, Wt, B-Raf Mutant, Negative Control)
A375 cells (ATCC CRL-1619) are dispensed into 384-well plates, flat and clear bottom (Greiner, PNr. 781091) at a density of 300 cells per well in 60 μL DMEM (Sigma D6429)+10% Fetal Calf Serum (HyClone, PNr.: SH30084.03) and incubated at 37° C. in a CO2 incubator overnight. The next day, compounds (10 mM stock in DMSO) are added at logarithmic dose series using the HP Digital Dispenser D300 (Tecan), including DMSO controls. Plates are incubated for 120 h, and cell viability is measured using CellTiter-Glo luminescent cell viability reagent (Promega product code G7570). Viability (stated as percent of control) is defined as relative luminescence units RLU of each well divided by the RLU of cells in DMSO controls. IC50 values are determined from viability measurements by non-linear regression using a four-parameter model.

T1 sequence (P01116 1-188 isoform P01116-2 G12D): as the sequence (P01116 1-188 isoform P01116-2 G12D) above

| DC50 (KRAS(G12D)) [nM] | Dmax 18 h (KRAS(G12D)) [% Ctrl] | DC50 (KRAS4B G12D) [nM] | Dmax at 18 h (KRAS4B G12D) [% Ctrl.] | DC50 (KRAS4B WT) [nM] | Dmax at 18 h (KRAS4B WT) [% Ctrl.] | DC50 (KRAS4B G12V) [nM] | Dmax at 18 h (KRAS4B G12V) [% Ctrl.] | IC50 (GP2D cells) [nM] | IC50 (A375 cells) [nM] | Compound |
| --- | --- | --- | --- | --- | --- | --- | --- | --- | --- | --- |
| 200 | 81 |  |  |  |  |  |  |  |  | Cc1ncsc1-c1ccc(CNC(=O)[C@@H]2C[C@@H](O)CN2C(=O)[C@H](c2cc(OCCCN3CCCN(c4nccc(-c5noc([C@@]6(C)CCCc7sc(N)c(C#N)c76)n5)n4)[C@@H](C)C3)no2)C(C)C)cc1 (single isomer, unassigned) [I-24] |
| 2.3 | 94 | 1.3 | 96 | 0.8 | 96 | 3.8 | 90.5 |  |  | Cc1ncsc1-c1ccc(CNC(=O)[C@@H]2C[C@@H](O)CN2C(=O)[C@@H](c2cc(OCCCN3CCCN(c4nccc(-c5noc([C@@]6(C)CCCc7sc(N)c(C#N)c76)n5)n4)[C@@H](C)C3)no2)C(C)C)cc1 (single isomer, unassigned) [I-25] |
| 2.9 | 93 | 1.1 | 95 | 0.7 | 95.5 | 2.7 | 86 | 5.1 | ≥ 3000 | Cc1ncsc1-c1ccc(CNC(=O)[C@@H]2C[C@@H](O)CN2C(=O)[C@@H](c2cc(OCCCCN3CCCN(c4nccc(-c5noc([C@@]6(C)CCCc7sc(N)c(C#N)c76)n5)n4)[C@@H](C)C3)no2)C(C)C)cc1 (single isomer, unassigned) [I-27] |
| 1.2 | 93 | 1.3 | 95.8 | 0.5 | 98.1 | 2.6 | 89.4 | 6.6 | ≥ 3000 | Cc1ncsc1-c1ccc([C@@H](NC(=O)[C@@H]2C[C@@H](O)CN2C(=O)[C@H](C(C)C)n2cc(OCCCN3CCCN(c4nccc(-c5noc([C@@]6(C)CCCc7sc(N)c(C#N)c76)n5)n4)[C@@H](C)C3)nn2)[C@H](O)C(C)C)cc1 (single isomer, unassigned) [I-43] |
| 1.4 | 93 |  |  |  |  |  |  | 9.4 | ≥ 3000 | Cc1ncsc1-c1ccc([C@@H](NC(=O)[C@@H]2C[C@@H](O)CN2C(=O)[C@H](C(C)C)n2cc(OCCCCN3CCCN(c4nccc(-c5noc([C@@]6(C)CCCc7sc(N)c(C#N)c76)n5)n4)[C@@H](C)C3)nn2)[C@H](O)C(C)C)cc1 (single isomer, unassigned) [I-45] |
| 3.9 | 91 |  |  |  |  |  |  | 33.3 | ≥ 3000 | CC(C)C(C(=O)N1C[C@H](O)C[C@H]1C(=O)NCc1ccc(C#N)cc1)c1cc(OCCCCN2CCCN(c3nccc(-c4noc([C@@]5(C)CCCc6sc(N)c(C#N)c65)n4)n3)[C@@H](C)C2)no1 (stereo partly shown) [I-16] |
| 2 | 93 | 1.5 | 96.0 | 0.8 | 97.2 | 3.5 | 90.5 | 8.5 | ≥ 3000 | Cc1ncsc1-c1ccc([C@H](CO)NC(=O)[C@@H]2C[C@@H](O)CN2C(=O)[C@H](C(C)C)n2cc(OCCCCN3CCCN(c4nccc(-c5noc([C@@]6(C)CCCc7sc(N)c(C#N)c76)n5)n4)[C@@H](C)C3)nn2)cc1 [I-29] |
| 4.4 | 93 | 3.3 | 95.8 | 1.7 | 97.5 | 8.7 | 89.2 | 26.1 | ≥ 3000 | Cc1ncsc1-c1ccc([C@H](CO)NC(=O)[C@@H]2C[C@@H](O)CN2C(=O)[C@H](C(C)C)n2cc(OC(C)CCCN3CCCN(c4nccc(-c5noc([C@@]6(C)CCCc7sc(N)c(C#N)c76)n5)n4)[C@@H](C)C3)nn2)cc1 (stereo partly shown) [I-31] |

Further lines, the molecule ahead of its results:

| Compound | DC50 (KRAS(G12D)) [nM] | Dmax 18 h (KRAS(G12D)) [% Ctrl] | DC50 (KRAS4B G12D) [nM] | Dmax at 18 h (KRAS4B G12D) [% Ctrl.] | DC50 (KRAS4B WT) [nM] | Dmax at 18 h (KRAS4B WT) [% Ctrl.] | DC50 (KRAS4B G12V) [nM] | Dmax at 18 h (KRAS4B G12V) [% Ctrl.] | IC50 (GP2D cells) [nM] | IC50 (A375 cells) [nM] |
| --- | --- | --- | --- | --- | --- | --- | --- | --- | --- | --- |
| Cc1ncsc1-c1ccc([C@@H](NC(=O)[C@@H]2C[C@@H](O)CN2C(=O)[C@H](C(C)C)n2cc(OCCCCN3CCCN(c4nccc(-c5noc([C@@]6(C)CCCc7sc(N)c(C#N)c76)n5)n4)[C@@H](C)C3)nn2)[C@H](C)O)cc1 (single isomer, unassigned) [I-41] | 1.6 | 94 | 1.3 | 96.1 | 0.5 | 98.0 | 2.5 | 90.8 | 7.7 | ≥ 3000 |
| Cc1ncsc1-c1ccc(CNC(=O)[C@@H]2C[C@@H](O)CN2C(=O)C(c2cc(OCCCCN3CCCN(c4nccc(-c5cc([C@@]6(C)CCCc7sc(N)c(C#N)c76)on5)n4)[C@@H](C)C3)no2)C(C)C)cc1 (stereo partly shown) [I-4] | 4.3 | 94 |  |  |  |  |  |  |  |  |
| Cc1ncsc1-c1ccc([C@H](C)NC(=O)[C@@H]2C[C@@H](O)CN2C(=O)C(C(C)C)n2cc(OCCCCN3CCCN(c4nccc(-c5noc([C@@]6(C)CCCc7sc(N)c(C#N)c76)n5)n4)[C@@H](C)C3)nn2)cc1 (stereo partly shown) [I-28] | 1.5 | 93 |  |  |  |  |  |  | 2.9 | 1090 |
| Cc1ncsc1-c1ccc([C@H](CO)NC(=O)[C@@H]2C[C@@H](O)CN2C(=O)[C@H](C(C)C)n2cc(OCCCC(C)N3CCCN(c4nccc(-c5noc([C@@]6(C)CCCc7sc(N)c(C#N)c76)n5)n4)[C@@H](C)C3)nn2)cc1 (stereo partly shown) [I-30] | 1.4 | 94 | 0.8 | 96.1 | 0.4 | 97.8 | 2.2 | 91.0 | 6.4 | ≥ 3000 |
| Cc1ncsc1-c1ccc([C@H](CCO)NC(=O)[C@@H]2C[C@@H](O)CN2C(=O)[C@H](C(C)C)n2cc(OCCCCN3CCCN(c4nccc(-c5noc([C@@]6(C)CCCc7sc(N)c(C#N)c76)n5)n4)[C@@H](C)C3)nn2)cc1 [I-38] | 3.3 | 93 |  |  |  |  |  |  | 12.6 | ≥ 3000 |
